From patent US20260097090A1, “HERBAL MEDICINE EXTRACTS RM01 AND USES AND METHODS OF PREPARATION THEREOF” (RenuMemo Therapeutics LLC, priority 2022, published 2026)

Tested on: patient with severe Alzheimer's disease
Assay: Human efficacy case study, Mini Mental State Examination (MMSE) and family report
Format: in vivo
Conditions: same patient, long time taking Memantine and Donepezil before RM01; drugs stopped before the visit
Protocol: The patient has been taking Memantine and Donepezil to treat their disease. However, both drugs were stopped before the visit.
The patient was evaluated by Mini Mental State Examination (MMSE) during the first visit.
The patient was given the herbal extract composition RM01 twice a day every day, for five weeks. Family member assisted all the process.
The patient was re-evaluated of MMSE after 1 week of treatment. In the meantime, the family member was questioned on patient daily life, regarding sleep, mood, reaction to people, behavioral and psychological symptoms.
The treatment and re-evaluation lasted 5 weeks.

| Structure (SMILES) | patient symptom improvement on prior medication, informed by the patient's spouse |
| --- | --- |
| COc1cc2c(cc1OC)C(=O)C(CC1CCN(Cc3ccccc3)CC1)C2 (centres unmarked) [Donepezil] | not much effect |
| CC12CC3CC(C)(C1)CC(N)(C3)C2 [Memantine] | not much effect |
